We go through seven compounds from paper PMC7824903, “Dual Carbonic Anhydrase IX/XII Inhibitors and Carbon Monoxide Releasing Molecules Modulate LPS-Mediated Inflammation in Mouse Macrophages” (Antioxidants, 2021).

For assay [1], the target named is T1, hCA XII (Homo sapiens, UniProt O43570).
T1 construct: gene CA12; recombinant, obtained in-house
Nature of the assay: biochemical. Also on record: Stopped-flow CO2 hydrase assay, phenol red absorbance at 557 nm, KI by Cheng-Prusoff. The procedure: (§1) An Applied Photophysics stopped-flow instrument has been used for assaying the CA catalysed CO2 hydration activity. Phenol red (at a concentration of 0.2 mM) has been used as indicator, working at the absorbance maximum of 557 nm, with 20 mM Hepes (pH 7.5) as buffer, and 20 mM Na2SO4 (for maintaining constant the ionic strength), following the initial rates of the CA-catalyzed CO2 hydration reaction for a period of 10–100 s. The CO2 concentrations ranged from 1.7 to 17 mM for the determination of the kinetic parameters and inhibition constants. For each inhibitor at least six traces of the initial 5–10% of the reaction have been used for determining the initial velocity. The uncatalyzed rates were determined in the same manner and subtracted from the total observed rates. Stock solutions of inhibitor (0.1 mM) were prepared in distilled-deionized water and dilutions up to 0.01 nM were done thereafter with the assay buffer. Inhibitor and enzyme solutions were preincubated together for 15 min at room temperature prior to assay, to allow for the formation of the E-I complex. The inhibition constants were obtained by non-linear least-squares methods using PRISM 3 and the Cheng–Prusoff equation, as reported earlier, and represent the mean from at least three different determinations. All CA isoforms were recombinant ones obtained in-house as reported earlier. […] DCH/CO-RM derivatives 1–10 were therefore investigated as inhibitors of the hCAs I, II, IX, and XII by means of the Stopped-Flow CO2 hydrase assay.

For assay [2], the target named is T2, hCA IX (Homo sapiens, UniProt Q16790).
T2 construct: gene CA9; recombinant, obtained in-house
Nature of the assay: biochemical. The arrangement: Stopped-flow CO2 hydrase assay, phenol red absorbance at 557 nm, KI by Cheng-Prusoff. The procedure:
as §1

For assay [3], the target named is T3, hCA II (Homo sapiens, UniProt P00918).
T3 construct: gene CA2; recombinant, obtained in-house
Nature of the assay: biochemical. Also on record: Stopped-flow CO2 hydrase assay, phenol red absorbance at 557 nm, KI by Cheng-Prusoff. The procedure:
as §1

In assay [4] the target is T4, hCA I (Homo sapiens, UniProt P00915).
T4 construct: gene CA1; recombinant, obtained in-house
Nature of the assay: biochemical. Also on record: Stopped-flow CO2 hydrase assay, phenol red absorbance at 557 nm, KI by Cheng-Prusoff. The procedure: as §1

Assay [5] addresses T2, hCA IX. Nature of the assay: stopped-flow CO2 hydrase assay. It is filed as biochemical.
For assay [6], the target named is T1, hCA XII. Briefly: stopped-flow CO2 hydrase assay. In kind it is biochemical. To be noted: CO2 […], […] Hepes pH […] Na2SO4, […] min preincubation at room temperature.
Assay [7] deals with T2, hCA IX. Briefly: stopped-flow CO2 hydrase assay. In kind it is biochemical. To be noted: CO2 […], […] Hepes pH […] Na2SO4, […] min preincubation at room temperature.
Assay [8] has as its target T1, hCA XII. Briefly: stopped-flow CO2 hydrase assay. In kind it is biochemical.

T1 sequence (O43570 30-289 limits assumed): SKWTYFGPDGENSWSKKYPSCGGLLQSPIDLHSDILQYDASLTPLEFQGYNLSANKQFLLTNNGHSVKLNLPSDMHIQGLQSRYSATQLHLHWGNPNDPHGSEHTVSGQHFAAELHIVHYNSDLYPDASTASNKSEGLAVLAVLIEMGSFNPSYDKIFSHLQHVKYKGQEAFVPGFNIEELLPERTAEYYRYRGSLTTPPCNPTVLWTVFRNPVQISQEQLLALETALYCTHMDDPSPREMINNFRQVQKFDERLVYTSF
T4 sequence (P00915 2-261): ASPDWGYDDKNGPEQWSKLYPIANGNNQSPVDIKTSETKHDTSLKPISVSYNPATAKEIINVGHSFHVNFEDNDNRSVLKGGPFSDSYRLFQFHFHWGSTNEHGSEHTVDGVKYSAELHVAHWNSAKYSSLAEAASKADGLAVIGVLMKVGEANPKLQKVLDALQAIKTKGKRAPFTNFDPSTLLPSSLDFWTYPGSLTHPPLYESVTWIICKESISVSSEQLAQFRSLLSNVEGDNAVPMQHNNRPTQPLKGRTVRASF

Broadly, the Ki is a measure of affinity in units of concentration, obtained from inhibition or displacement. Low readings indicate tighter binding, high ones weaker binding. `C#CCOc1ccc(-c2nc3ccccc3n2-c2ccccc2)cc1` [l]: the Ki in assay [1], in assay [2], in assay [3] and in assay [4] was greater than 100000 nM throughout.

Turning to `C#CCOC1=NS(=O)(=O)OC(C)=C1` [a], in assay [5] (CO2 […], […] Hepes pH […] Na2SO4, […] min preincubation at room temperature), the Ki is 252 nM.

Consider `C#CCOc1cccc2cc(C(=O)c3ccccc3)c(=O)oc12` [f, 3-benzoyl-8-(prop-2-yn-1-yloxy)-2H-chromen-2-one], for which the inhibitory constant (Ki) in assay [1] was 4920 nM; in assay [3], greater than 100000 nM; in assay [4], greater than 100000 nM; in assay [5] it was 695 nM. The KI entry in assay [6] is recorded as “maintained unchanged their inhibitory activity against hCA XII”.

Turning to `C#CCOc1ccc(C2=NN(C(C)=O)C(c3ccccc3OC)C2)cc1` (stereo not shown) [i], the Ki in assay [1], in assay [2], in assay [3] and in assay [4] was greater than 100000 nM each time.

On to `C#CCOc1cccc2cc(C(=O)OCC)c(=O)oc12` [h, ethyl 2-oxo-8-(prop-2-yn-1-yloxy)-2H-chromene-3-carboxylate], for which the Ki in assay [3] and in assay [4] was greater than 100000 nM throughout.

In the case of `C#CCN1C(=O)C=C(C)OS1(=O)=O` [b, 6-methyl-3-(prop-2-yn-1-yl)-1,2,3-oxathiazin-4(3H)-one 2,2-dioxide], the inhibition constant Ki in assay [1] amounted to 378 nM; in assay [2] it was 358 nM. Also, the KI entry in assay [7] is “compound b exhibited a loss of inhibitory activity after the CO releasing group linkage”; in assay [6], “Compounds a and b showed better inhibitory activity against isoform XII”.

As for `C#CCOc1ccc2oc(=O)c(C(=O)c3ccccc3)cc2c1` [g, 3-benzoyl-6-(prop-2-yn-1-yloxy)-2H-chromen-2-one], the inhibition constant (Ki) in assay [5] was 315 nM; in assay [8], 353 nM.
